Patent US6291470A, “Indole derivatives process for producing the same and medicinal uses of the same” (Toray Industries, Inc., priority 1992, dated 2001)

Experiments:
[1] = test system: delayed type hypersensitivity; experiment: Mouse Delayed Type Hypersensitivity Reaction Suppression Test-2 (donor spleen cells, subcutaneous administration); assay type: in vivo; conditions: C57BL/6 spleen cells; subcutaneous everyday from day of sensitization, totally 8 days; BALB/c
From the text: (§1) BALB/c mice (male, 7 weeks old) were used, and each group consisted of 4-5 mice. Spleen cells (1×10^7 ) obtained from a donor mouse (C57BL/6) was subcutaneously administered to sensitize the mice. On Day 7 from the sensitization, the spleen cells (5×10^6) of the donor were subcutaneously administered on the right hing leg and spleen cells (5×10^6) obtained from a mouse of the same line as the recipient mice were subcutaneously administered on the left footpad. Twenty four hours later, the thicknesses of the right and left footpads were measured with a dial thickness gage, and the difference in thicknesses of the right and left footpads before the induction of the reaction and 24 hours after the induction of the reaction was employed as the index of the degree of the reaction.
The test compound was dissolved in 10% DMSO-water and was subcutaneously administered everyday from the day of sensitization to the day of induction of the reaction, totally 8 days. In the control group, 10% DMSO-water alone was administered in the same manner. The volume of administration was 10 ml/kg in both study groups and in the control group. Delayed Type Hypersensitivity Reaction=(thickness of right foodpad after induction-thickness of right footpad before induction)-(thickness of […] before induction) [formula]
wherein C means delayed type hypersensitivity reaction of the group to which the test compound was administered and D means the delayed type hypersensitivity reaction of the group to which vehicle was administered.

[2] = test system: contact dermatitis; experiment: Mouse Contact Dermatitis Suppression Test (DNFB); assay type: in vivo; conditions: into cerebral ventricle 30 minutes before induction, BALB/c
Protocol: BALB/c mice (male, 13-15 weeks old) were used, and each group consisted of 4 mice. In mixed liquid of acetone: olive oil=4:[…] (DNFB) was dissolved. On Day 0 and Day 1, 0.1% DNFB (50μ) was sensitized to the clipped skin of the abdominal wall, so as to sensitize the mouse. On day 5, 0.15% DNFB (25 μl/ear) was challenged on closal side of each ear love of each mouse, so as to induce the reaction. The compound was administered into cerebral ventricle 30 minutes before the induction.
The contact dermatitis was detected in terms of the increase in the thicknesses of the ears. The thicknesses of the ears were measured before and 24 hours after the challenge by using a dial thickness gage. One ear was taken as n=1, and the increase in the thickness of the ear was used as an index for detecting the contact dermatitis. Contact Dermatitis=(thickness of the ear after challenge)-(thickness of the ear before challenge) [formula]
wherein E means the contact dermatitis of the group to which the compound was administered, and F means the contact dermatitis of the group to which the vehicle was administered.

[3] = test system: delayed type hypersensitivity; experiment: Mouse Delayed Type Hypersensitivity Reaction Suppression Test-3 (administration into cerebral ventricles); assay type: in vivo
From the text: as §1, with “(1×10^7)” for “(1×10^7 )”, “footpad” for “hing leg”, “strain” for “line”
The test compound was dissolved in water and 5×10^-8 mol/mouse was administered into cerebral ventricles. In the control group, water alone was administered similarly. The dose was 5 μl/mouse in both the study groups and the control group.

[4] = target: T1, δ-opioid receptor (Mus musculus, UniProt P32300); experiment: δ-opioid antagonist activity against DPDPE in mouse vas deferens (MVD); conditions: for Ratio of IC50 Values: DPDPE IC50 with/without 100 nM test compound; for Ratio of IC50 Values / Kb: 20 min; for Kb: against DPDPE, test compound 100 nM, read-out: Ke
T1 construct: from tissue; host or cells: vas deferens of male ddy mice
T1 sequence (P32300 whole entry): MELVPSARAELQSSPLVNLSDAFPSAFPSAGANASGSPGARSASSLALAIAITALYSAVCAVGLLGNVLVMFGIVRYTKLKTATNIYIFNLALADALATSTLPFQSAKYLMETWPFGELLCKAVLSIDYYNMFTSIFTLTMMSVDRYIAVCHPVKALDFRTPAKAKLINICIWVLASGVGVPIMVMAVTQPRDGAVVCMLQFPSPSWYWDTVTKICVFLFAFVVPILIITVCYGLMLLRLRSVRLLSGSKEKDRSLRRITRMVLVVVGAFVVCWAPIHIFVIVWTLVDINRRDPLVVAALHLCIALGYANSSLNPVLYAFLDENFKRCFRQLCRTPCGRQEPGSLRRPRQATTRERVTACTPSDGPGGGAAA
Protocol: Using mouse vas deferens (MVD), the antagonist activity against DPDPE which is a δ-opioid agonist was checked.
In this experiment, ddy male mice were used. In a Magnus' tube which is filled with Krebes-Henseleit solution (NaCl […]; KCl 4.7 mM; CaCl2 2.5 mM; KH2 PO4 1.1 mM; NaHCO3 25 mM; glucose 11 mM) kept at 37° C., and into which an atmosphere consisting of 5% carbon dioxide and 95% oxygen was flown, vas deferens taken from the animals was suspended. Electric stimulation was applied through ring-shaped platinum electrodes mounted on the upper and lower portions of the tube at a frequency of 0.1 Hz and 5.0 mS duration. The contraction of the tissue was recorded on polygraph using isometric transducer.
Then 100 nM of the test compound was added. Twenty minutes later, DPDPE was begun to be added cumulatively. The ratio of IC50 values in the presence and absence of the test compound, Ke value (the molar concentration of the test compound necessary for translating the dose-effect curve to the curve of twice dose) and pA2 value were determined. The pA2 value was determined by the method of Shild et al (Shild, H. O., Br. J. Pharmac. Chamotehr., 4, 277 (1949)). That is, the logarithm of the test compound (log[test compound]) was plotted along the abscissa and the logarithm of the value obtained by subtracting 1 from the ratio of IC50 values was plotted in the presence and absence of the test compound [log(dose ratio-1)] along the ordinate. The pA2 value was determined from the value on the abscissa when the value on the ordinate of the obtained line is 0.

[5] = test system: delayed type hypersensitivity; experiment: Delayed type hypersensitivity suppression test using mice from which adrenal glands have been removed; assay type: in vivo, mouse; conditions: subcutaneous, totally 8 days
From the text: The mechanism of immunosuppression of the compound of the present invention was examined using delayed type hypersensitivity suppression test using mice from which adrenal glands have been removed.
as §1, with “(1×10^7)” for “(1×10^7 )”, “footpad” for “hing leg”, “strain” for “line”
The adrenectomy was performed by cutting the back of each recipient mouse under anesthesia with ether before the sensitization and removing the adrenal gland. Sham operation was performed by cutting the back of each recipient mouse but not removing the adrenal gland.
The test compound was dissolved in 10% DMSO-water and was subcutaneously administered everyday from the day of sensitization to the day of induction of the reaction, totally 8 days. In the control group, 10% DMSO-water alone was administered in the same manner. The volume of administration was 10 ml/kg in both study groups and in the control groups.

[6] = test system: delayed type hypersensitivity; experiment: Mouse Delayed Type Hypersensitivity Reaction Suppression Test-1 (SRBC); assay type: in vivo; conditions: SRBC sensitization; subcutaneous, everyday from 3 days before sensitization, totally 8 days; BALB/c
Protocol: BALB/c mice (male, 7 weeks old) were used. The mice were classified into groups depending on the body weight, each group consisting of 7-8 mice. Each of the mice was sensitized by subcutaneously administering […] of SRBC (8×10^8 in saline) on the heel of the left hing leg. On day 4 from the sensitization, 25 μl of SRBC (8×10^9 in saline) was subcutaneously administered on the right footpad so as to induce delayed type hypersensitivity. The difference in the thicknesses of the right footpad before the induction of reaction and 24 hours after the induction of the reaction was employed as an index of the degree of the reaction.
The test compound was dissolved in 10% DMSO-water and was subcutaneously administered everyday from 3 days before the sensitization to the day of induction of the reaction, totally 8 days. In the control group, 10% DMSO-water alone was administered in the same manner. The volume of administration was 5 ml/kg in both study groups and in the control group.
The % suppression of the delayed type hypersensitivity reaction was calculated according to the following equation: [formula]
wherein A means the difference in the thickness of the right hind leg before and after the reaction in control group, and B means the difference in the thickness of the right hind leg before and after the reaction in the group to which the test compound was administered.

[7] = test system: Cerebral cortex nerve cells; experiment: Brain cell-protecting action, MTT method; assay type: cell-based, rat; conditions: study group / control group, 570 nm, 10 μM, 3 days culture
Protocol: The brain cell-protecting action was examined by MTT [3-(4,5-dimethylthiazol-2-yl)-2,5-diphenyltetrazolium bromide] method. MTT yields a dark blue formazan compound by mitochondria in living cells. This compound was dissolved in isopropanol and absorbance at 570 nm was measured, thereby measuring the number of living cells.
Cerebral cortex nerve cells of fetal rats of 17 days old were placed in wells of a 96-well plate at a population density of 1×10^5 cells/cm^2. Then 10 μM of a test compound was added and the cells were cultured in 200 μl of mixed medium of D-MEM/F.12 (1:1) for 3 days (37° C., 5%CO2). In a control group, the medium alone was added Then […] of MTT solution in PBS (6mg/ml) was added and the mixture was allowed to react for 3 hours (37° C., 5% CO2). After removing the culture medium, 100 μl of isopropanol was added and the absorbance was measured.
The ratio of the absorbances of the study group and the control group was employed as an index of brain cell-protecting action.

[8] = test system: brain cells; conditions: Kokai No. 3-218313; cited from earlier work

| SMILES | % Suppression [1] [%] | Ratio of IC50 Values [4] | Kb [4] [nM] | % Suppression [6] [%] | other results |
| --- | --- | --- | --- | --- | --- |
| Oc1ccc2c3c1O[C@H]1c4[nH]c5c6c(ccc5c4C[C@@]4(O)[C@@H](C2)N(CC2CC2)CC[C@]314)CCCC6 [Compound 2, 17-cyclopropylmethyl-3,14β-dihydroxy-4,5α-epoxy-6,7-didehydromorphinano[6,7-b]cyclohexeno[g]indole] | 60 | 22.1 | 4.74 | – | suppression of contact dermatitis [2]: 44%; % Suppression ([3]; 5×10^-8 mol/mouse into cerebral ventricles, BALB/c): 83%; suppressive effect relative to NTI (in words) ([3]; into cerebral ventricles, vs NTI): far stronger than NTI; % Suppression ([5]; Adrenectomy): 60%; % Suppression ([5]; Sham Operation): 60% |
| CSc1ccc2c3c([nH]c2c1)[C@@H]1Oc2c(O)ccc4c2[C@@]12CCN(CC1CC1)[C@H](C4)[C@]2(O)C3 [Compound 43, 17-cyclopropylmethyl-6,7-didehydro-4,5α-epoxy-3,14β-dihydroxy-6'-methylthio-6,7-2',3'-indolomorphinan] | 27 | 168 | 0.6 | 26 | – |
| N#Cc1ccc2c3c([nH]c2c1)[C@@H]1Oc2c(O)ccc4c2[C@@]12CCN(CC1CC1)[C@H](C4)[C@]2(O)C3 [Compound 53, 17-cyclopropylmethyl-6,7-didehydro-4,5α-epoxy-3,14β-dihydroxy-6'-cyano-6,7-2',3'-indolomorphinan] | – | 62.3 | 1.63 | 18 | – |
| O=[N+]([O-])c1cccc2[nH]c3c(c12)C[C@@]1(O)[C@H]2Cc4ccc(O)c5c4[C@@]1(CCN2CC1CC1)[C@H]3O5 [Compound 78, 17-cyclopropylmethyl-6,7-didehydro-4,5α-epoxy-3,14β-dihydroxy-4'-nitro-6,7-2',3'-indolomorphinan] | – | 148 | 7.25 | 36 | – |
| CCOC(=O)c1cccc2c3c([nH]c12)[C@@H]1Oc2c(O)ccc4c2[C@@]12CCN(CC1CC1)[C@H](C4)[C@]2(O)C3 [Compound 119, 17-cyclopropylmethyl-6,7-didehydro-4,5α-epoxy-3,14β-dihydroxy-7'-ethoxycarbonyl-6,7-2',3'indolomorphinan] | 31 | 635 | 0.16 | 12 | δ-antagonist activity relative to NTI (times that of NTI) [4]: 1.3-1.6 times |
| Oc1ccc2c3c1O[C@H]1c4[nH]c5c(-c6ccccc6)cccc5c4C[C@@]4(O)[C@@H](C2)N(CC2CC2)CC[C@]314 [Compound 120, 17-cyclopropylmethyl-6,7-didehydro-4,5α-epoxy-3,14β-dihydroxy-7'-phenyl-6,7-2',3'-indolomorphinan] | 46 | 17.0 | 6.25 | – | – |
| CSc1cccc2c3c([nH]c12)[C@@H]1Oc2c(O)ccc4c2[C@@]12CCN(CC1CC1)[C@H](C4)[C@]2(O)C3 [Compound 121, 17-cyclopropylmethyl-6,7-didehydro-4,5α-epoxy-3,14β-dihydroxy-7'-methylthio-6,7-2',3'-indolomorphinan] | – | 33.6 | 3.07 | 20 | – |
| O=[N+]([O-])c1cccc2c3c([nH]c12)[C@@H]1Oc2c(O)ccc4c2[C@@]12CCN(CC1CC1)[C@H](C4)[C@]2(O)C3 [Compound 136, 17-cyclopropylmethyl-6,7-didehydro-4,5α-epoxy-3,14β-dihydroxy-7'-nitro-6,7-2',3'-indolomorphinan] | – | 192 | 0.52 | 18 | – |
| CCCOC(=O)c1ccc2c3c([nH]c2c1)[C@@H]1Oc2c(O)ccc4c2[C@@]12CCN(CC1CC1)[C@H](C4)[C@]2(O)C3 [Compound 393, 17-cyclopropylmethyl-6,7-didehydro-4,5α-epoxy-3,14β-dihydroxy-6'-propoxycarbonyl-6,7-2',3'-indolomorphinan] | 33 | 12.3 | 8.85 | – | – |
| Oc1ccc2c3c1O[C@H]1c4[nH]c5c(c4C[C@@]4(O)[C@@H](C2)N(CC2CC2)CC[C@]314)C[C@@]1(O)[C@H]2Cc3ccc(O)c4c3[C@@]1(CCN2CC1CC1)[C@H]5O4 [nor-BNI, reference compound] | – | – | – | – | Ratio of Absorbances [7]: 7.60; brain cell-protecting action (in words) [8]: has brain cell-protecting action |
